# Key:
# [1] = solubility in water; format: physicochemical; conditions: compared with unsubstituted cucurbit[6]uril
# [2] = association constant of methane in the cucurbituril; format: binding; conditions: relative to decamethylcucurbit[5]uril
# [3] = association constant of dioxane in the cucurbituril; format: binding; conditions: relative to tetramethylcucurbit[2,4]uril
substance,measurement,setting,value
"α, δ-tetramethylcucurbit[2,4]uril",solubility in water,[1],greater solubility in water than unsubstituted cucurbit[6]uril
"dimethylcucurbit[1,4]uril",association constant of methane,[2],three times higher
unsubstituted cucurbit[6]uril,association constant of dioxane,[3],two times higher
